Experimental data taken from ChEMBL document CHEMBL4270597, “Donepezil-butylated hydroxytoluene (BHT) hybrids as Anti-Alzheimer's disease agents with cholinergic, antioxidant, and neuroprotective properties” (Eur J Med Chem, 2018).
Active and inactive are the calls of the source. The rule behind the calls is not given here.

Experiments:
Acetylcholinesterase [1] = biological target: Acetylcholinesterase (Electrophorus electricus, UniProt O42275); test: Inhibition of electric eel AChE using acetylthiocholine chloride as substrate incubated for 5 mins followed by substrate addition measured after 180 secs by Ellman's method
Sequence of Acetylcholinesterase (Electrophorus electricus, UniProt O42275) (O42275 whole entry): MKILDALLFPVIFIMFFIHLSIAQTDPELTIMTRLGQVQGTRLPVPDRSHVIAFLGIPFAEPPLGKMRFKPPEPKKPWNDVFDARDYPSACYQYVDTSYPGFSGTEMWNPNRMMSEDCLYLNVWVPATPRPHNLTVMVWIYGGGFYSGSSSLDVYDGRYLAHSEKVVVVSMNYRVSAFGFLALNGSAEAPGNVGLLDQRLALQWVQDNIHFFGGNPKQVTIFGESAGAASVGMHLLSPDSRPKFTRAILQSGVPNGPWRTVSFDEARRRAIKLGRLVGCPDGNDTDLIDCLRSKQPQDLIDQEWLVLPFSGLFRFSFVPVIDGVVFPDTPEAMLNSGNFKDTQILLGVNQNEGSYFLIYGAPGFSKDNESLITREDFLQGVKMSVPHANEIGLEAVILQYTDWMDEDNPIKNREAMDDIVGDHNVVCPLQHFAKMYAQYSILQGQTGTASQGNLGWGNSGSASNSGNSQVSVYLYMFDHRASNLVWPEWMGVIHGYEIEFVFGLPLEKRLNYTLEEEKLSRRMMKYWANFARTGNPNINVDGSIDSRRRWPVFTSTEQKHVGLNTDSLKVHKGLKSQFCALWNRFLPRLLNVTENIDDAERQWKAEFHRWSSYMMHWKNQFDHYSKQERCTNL

[2] = Antioxidant activity assessed as DPPH radical scavenging activity measured after 30 mins incubation in dark by UV-Visible spectrophotometric analysis; type: functional
[3] = Antioxidant activity assessed as ABTS radical cation scavenging activity by measuring trolox equivalent antioxidant capacity measured at 6 mins; type: functional
Acetylcholinesterase [4] = biological target: T1, Acetylcholinesterase (Homo sapiens, UniProt P22303); test: Inhibition of human erythrocyte AChE using acetylthiocholine chloride as substrate incubated for 5 mins followed by substrate addition measured after 180 secs by Ellman's method
T1 sequence (P22303 whole entry): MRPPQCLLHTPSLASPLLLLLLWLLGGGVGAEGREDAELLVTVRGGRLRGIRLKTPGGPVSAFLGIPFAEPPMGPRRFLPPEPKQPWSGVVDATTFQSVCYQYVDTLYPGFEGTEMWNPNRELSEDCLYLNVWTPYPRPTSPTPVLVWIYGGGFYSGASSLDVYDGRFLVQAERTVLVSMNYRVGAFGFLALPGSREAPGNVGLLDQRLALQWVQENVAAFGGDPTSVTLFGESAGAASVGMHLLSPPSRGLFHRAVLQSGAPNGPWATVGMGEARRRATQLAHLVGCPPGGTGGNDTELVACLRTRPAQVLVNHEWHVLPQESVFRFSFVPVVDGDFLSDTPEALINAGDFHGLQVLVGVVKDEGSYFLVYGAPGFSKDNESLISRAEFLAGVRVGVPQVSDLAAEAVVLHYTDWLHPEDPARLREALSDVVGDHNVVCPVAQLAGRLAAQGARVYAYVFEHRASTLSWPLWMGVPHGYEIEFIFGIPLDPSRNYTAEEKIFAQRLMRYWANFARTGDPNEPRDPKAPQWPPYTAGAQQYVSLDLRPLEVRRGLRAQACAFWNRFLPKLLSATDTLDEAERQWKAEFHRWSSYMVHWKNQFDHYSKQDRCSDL

[5] = Antioxidant activity assessed as trolox equivalent of AAPH-induced radical scavenging activity preincubated for 15 mins followed by AAPH addition measured every minute for 120 mins by ORAC-FL based fluorescein assay; type: functional
[6] = biological target: Cholinesterase (Equus caballus) (UniProt P81908); test: Inhibition of equine serum BuChE at 100 uM using butyrylthiocholine iodide as substrate incubated for 5 mins followed by substrate addition measured after 180 secs by Ellman's method relative to control
Sequence of Cholinesterase (Equus caballus) (P81908 whole entry): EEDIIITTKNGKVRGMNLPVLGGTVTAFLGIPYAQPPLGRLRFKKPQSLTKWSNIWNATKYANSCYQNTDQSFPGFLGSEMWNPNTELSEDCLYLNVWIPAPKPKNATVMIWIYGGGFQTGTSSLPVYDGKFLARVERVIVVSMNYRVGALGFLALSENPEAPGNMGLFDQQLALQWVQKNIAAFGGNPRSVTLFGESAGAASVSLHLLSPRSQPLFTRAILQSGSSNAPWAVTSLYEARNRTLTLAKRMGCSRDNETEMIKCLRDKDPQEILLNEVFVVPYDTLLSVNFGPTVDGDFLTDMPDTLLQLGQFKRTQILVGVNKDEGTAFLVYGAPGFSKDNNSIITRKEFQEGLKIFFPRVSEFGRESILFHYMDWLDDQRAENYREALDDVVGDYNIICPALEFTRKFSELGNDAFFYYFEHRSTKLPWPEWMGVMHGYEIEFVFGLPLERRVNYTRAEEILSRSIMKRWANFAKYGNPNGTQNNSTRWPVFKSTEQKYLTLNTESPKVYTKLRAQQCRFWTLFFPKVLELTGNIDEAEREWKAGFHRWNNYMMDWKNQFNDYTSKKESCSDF

Cholinesterase [7] = biological target: T2, Cholinesterase (Homo sapiens, UniProt P06276); test: Inhibition of human serum BuChE using butyrylthiocholine iodide as substrate incubated for 5 mins followed by substrate addition measured after 180 secs by Ellman's method
T2 sequence (P06276 whole entry): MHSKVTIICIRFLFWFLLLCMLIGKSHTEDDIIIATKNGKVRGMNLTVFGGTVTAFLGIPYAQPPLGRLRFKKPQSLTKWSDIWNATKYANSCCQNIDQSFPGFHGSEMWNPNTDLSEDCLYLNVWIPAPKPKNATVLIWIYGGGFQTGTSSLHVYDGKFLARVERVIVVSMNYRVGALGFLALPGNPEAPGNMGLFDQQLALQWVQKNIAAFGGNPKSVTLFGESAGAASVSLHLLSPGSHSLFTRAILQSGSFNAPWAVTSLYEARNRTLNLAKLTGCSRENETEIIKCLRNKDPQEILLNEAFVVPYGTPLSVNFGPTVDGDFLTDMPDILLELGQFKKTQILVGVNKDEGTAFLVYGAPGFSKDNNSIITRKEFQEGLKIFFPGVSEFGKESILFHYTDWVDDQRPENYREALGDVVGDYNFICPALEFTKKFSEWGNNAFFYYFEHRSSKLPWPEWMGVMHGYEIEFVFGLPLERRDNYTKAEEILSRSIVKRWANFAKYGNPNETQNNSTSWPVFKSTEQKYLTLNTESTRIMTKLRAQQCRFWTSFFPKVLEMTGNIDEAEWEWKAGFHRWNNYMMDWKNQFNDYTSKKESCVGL

[8] = biological target: T3, Amine oxidase [flavin-containing] B (Homo sapiens, UniProt P27338); test: Inhibition of human MAO-B using p-tyramine as substrate incubated for 15 mins followed by substrate addition measured for 20 mins by fluorescence assay
T3 sequence (P27338 whole entry): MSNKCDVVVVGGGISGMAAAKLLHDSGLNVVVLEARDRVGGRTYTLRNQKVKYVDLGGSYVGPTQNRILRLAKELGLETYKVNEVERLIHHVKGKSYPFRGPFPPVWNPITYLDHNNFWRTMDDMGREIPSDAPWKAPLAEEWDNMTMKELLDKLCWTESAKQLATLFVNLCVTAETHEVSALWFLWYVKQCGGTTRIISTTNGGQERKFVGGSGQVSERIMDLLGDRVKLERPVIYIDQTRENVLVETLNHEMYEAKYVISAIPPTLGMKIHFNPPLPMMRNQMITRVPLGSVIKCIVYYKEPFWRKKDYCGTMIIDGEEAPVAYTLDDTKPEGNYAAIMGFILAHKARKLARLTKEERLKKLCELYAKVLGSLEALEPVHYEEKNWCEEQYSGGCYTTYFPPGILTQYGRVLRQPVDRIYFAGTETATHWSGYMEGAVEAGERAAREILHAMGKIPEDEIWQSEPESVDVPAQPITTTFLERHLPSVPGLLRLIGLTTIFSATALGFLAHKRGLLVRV

[9] = biological target: T4, Amine oxidase [flavin-containing] A (Homo sapiens, UniProt P21397); test: Inhibition of human MAO-A using p-tyramine as substrate incubated for 15 mins followed by substrate addition measured for 20 mins by fluorescence assay
T4 sequence (P21397 whole entry): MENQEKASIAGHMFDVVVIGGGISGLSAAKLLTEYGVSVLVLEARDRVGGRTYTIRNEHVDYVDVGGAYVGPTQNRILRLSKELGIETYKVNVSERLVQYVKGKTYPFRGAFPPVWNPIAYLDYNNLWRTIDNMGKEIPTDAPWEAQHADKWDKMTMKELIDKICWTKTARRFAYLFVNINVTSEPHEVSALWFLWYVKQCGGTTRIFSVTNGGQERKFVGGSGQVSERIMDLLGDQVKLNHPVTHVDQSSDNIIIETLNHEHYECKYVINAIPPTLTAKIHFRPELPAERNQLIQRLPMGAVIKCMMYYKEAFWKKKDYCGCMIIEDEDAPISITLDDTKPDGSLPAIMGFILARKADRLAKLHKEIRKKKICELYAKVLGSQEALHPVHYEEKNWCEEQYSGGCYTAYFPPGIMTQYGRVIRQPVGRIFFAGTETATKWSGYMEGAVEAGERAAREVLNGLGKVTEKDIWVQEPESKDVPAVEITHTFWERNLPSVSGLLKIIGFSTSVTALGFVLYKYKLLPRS

Cholinesterase [10] = biological target: T2, Cholinesterase; test: Inhibition of human serum BuChE at 100 uM using butyrylthiocholine iodide as substrate incubated for 5 mins followed by substrate addition measured after 180 secs by Ellman's method relative to control
Homo sapiens = species on record: Homo sapiens; test: Selectivity index, ratio of IC50 for human serum BuChE to IC50 for human erythrocyte AChE
Acetylcholinesterase [11] = biological target: T1, Acetylcholinesterase; test: Inhibition of human erythrocyte AChE at 100 uM using acetylthiocholine chloride as substrate incubated for 5 mins followed by substrate addition measured after 180 secs by Ellman's method relative to control
[12] = biological target: Acetylcholinesterase (Electrophorus electricus) (UniProt O42275); test: Inhibition of electric eel AChE at 100 uM using acetylthiocholine chloride as substrate incubated for 5 mins followed by substrate addition measured after 180 secs by Ellman's method relative to control
Sequence of Acetylcholinesterase (Electrophorus electricus) (O42275 24-633 limits assumed): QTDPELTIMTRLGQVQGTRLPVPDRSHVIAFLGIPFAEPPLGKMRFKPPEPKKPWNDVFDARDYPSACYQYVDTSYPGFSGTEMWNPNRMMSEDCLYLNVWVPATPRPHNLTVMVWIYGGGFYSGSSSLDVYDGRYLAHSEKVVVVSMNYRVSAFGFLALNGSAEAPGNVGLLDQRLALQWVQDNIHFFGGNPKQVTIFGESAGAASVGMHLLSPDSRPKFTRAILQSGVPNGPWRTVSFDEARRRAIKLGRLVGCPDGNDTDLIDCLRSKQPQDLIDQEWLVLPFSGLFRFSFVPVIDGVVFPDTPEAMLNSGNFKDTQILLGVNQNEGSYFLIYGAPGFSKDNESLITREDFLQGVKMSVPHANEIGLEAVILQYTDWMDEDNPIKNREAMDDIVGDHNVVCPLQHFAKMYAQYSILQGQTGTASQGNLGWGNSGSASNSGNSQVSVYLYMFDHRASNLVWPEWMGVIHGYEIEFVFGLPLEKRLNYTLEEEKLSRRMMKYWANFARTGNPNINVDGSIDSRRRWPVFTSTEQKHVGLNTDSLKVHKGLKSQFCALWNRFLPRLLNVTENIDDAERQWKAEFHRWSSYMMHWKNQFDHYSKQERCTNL

BV-2 = test: Antineuroinflammatory activity in mouse BV2 cells assessed as inhibition of LPS-induced NO production at 10 to 30 uM after 24 hrs by Griess assay; type: functional, cell-based
[13] = Antioxidant activity assessed as DPPH radical scavenging activity at 100 uM measured after 30 mins incubation in dark by UV-Visible spectrophotometric analysis relative to control; type: functional

Compound	IC50 (Acetylcholinesterase [1]) [nM]	IC50 [2] [µM]	Activity (mmolequiv/mmol) [3]	IC50 (Acetylcholinesterase [4]) [nM]	Activity (mmolequiv/mmol) [5]	inhibition [6] [%]	IC50 (Cholinesterase [7])	IC50 [8] [µM]	IC50 [9] [µM]	inhibition (Cholinesterase [10]) [%]	Ratio IC50 (Homo sapiens)	inhibition (Acetylcholinesterase [11]) [%]	inhibition [12] [%]	inhibition (BV-2)	Activity [13] [%]
CC(C)(C)c1cc(/C=C/C(=O)NCCC2CCN(Cc3ccccc3Cl)CC2)cc(C(C)(C)C)c1O	590	80.2	0.64	2440	1.6	35.5	Not Active	9.8	72.1						
CC(C)(C)c1cc(CCC(=O)NCCC2CCN(Cc3ccccc3)CC2)cc(C(C)(C)C)c1O	2310	54.5	0.69	3420	1.33	42.4		46.9	94.1	36.5	> 33				
CC(C)(C)c1cc(/C=C/C(=O)NC2CCN(Cc3ccccc3)CC2)cc(C(C)(C)C)c1O		71.9	0.94		1.42	31.5		33.5	42.5	9.41		27.7	34.3		
Cc1ccc(CN2CCC(CCNC(=O)/C=C/c3cc(C(C)(C)C)c(O)c(C(C)(C)C)c3)CC2)cc1	720	60.4	0.89	2010	1.57	41.4	Not Active	8.9	70.1						
CC(C)(C)c1cc(/C=C/C(=O)NCCC2CCN(Cc3cccc([N+](=O)[O-])c3)CC2)cc(C(C)(C)C)c1O	1210	78.1	0.85	3460	1.6	42.6	Not Active	12.5	70.9						
CC(C)(C)c1cc(CCC(=O)NC2CCN(Cc3ccccc3)CC2)cc(C(C)(C)C)c1O		80.3	0.68		1.62	28.7		70.4	90.2	12.3		30.2	34.4		
Oc1ccc(/C=C/c2cc(O)cc(O)c2)cc1 [RESVERATROL]		75.1	0.68		1.84									Active	
CC(C)(C)c1cc(/C=C/C(=O)NCCC2CCN(Cc3ccc(F)cc3)CC2)cc(C(C)(C)C)c1O	320	57.5	0.88	980	1.51	40.2	Not Active	11.1	59.6						
COc1ccc(CN2CCC(CCNC(=O)/C=C/c3cc(C(C)(C)C)c(O)c(C(C)(C)C)c3)CC2)cc1	850	61.2	0.82	2120	1.66	43.6	Not Active	6.7	72.5						
CC(C)(C)c1cc(C(=O)NCCC2CCN(Cc3ccccc3)CC2)cc(C(C)(C)C)c1O			0.84		1.6	49.7		89.2	109	15.8		34.1	41.8		49.1
CC(C)(C)c1cc(/C=C/C(=O)NCCC2CCN(Cc3ccc(Br)cc3)CC2)cc(C(C)(C)C)c1O	1320	85.6	0.77	3810	1.59	38.9	Not Active	13.2	73.2						
CC(C)(C)c1cc(/C=C/C(=O)NCCC2CCN(Cc3cccc(Cl)c3)CC2)cc(C(C)(C)C)c1O	740	83.1	0.74	2540	1.55	41.5	Not Active	8.7	65.1						
CC(C)(C)c1cc(/C=C/C(=O)NCCC2CCN(Cc3ccc(F)cc3F)CC2)cc(C(C)(C)C)c1O	560	62.4	0.91	1780	1.54	31.2	Not Active	12.5	70.6						
Cc1cc(C(C)(C)C)c(O)c(C(C)(C)C)c1 [BUTYLATED HYDROXYTOLUENE]		88.6	0.59		1.57									Active	
CC(C)(C)c1cc(C(=O)CNC2CCN(Cc3ccccc3)CC2)cc(C(C)(C)C)c1O			0.36		0.35	27.2		83.4	104	26.1		43.4	45		16.3
CC(C)(C)c1cc(/C=C/C(=O)NCCC2CCN(Cc3ccc(C#N)cc3)CC2)cc(C(C)(C)C)c1O	770	79.5	0.84	2780	1.62	48.1		13.9	78.2	41.2	> 36				
CC(C)(C)c1cc(/C=C/C(=O)NCCC2CCN(Cc3cccc(F)c3)CC2)cc(C(C)(C)C)c1O	680	55.2	0.78	1330	1.59	37.9	Not Active	6.5	58.4						
CC(C)(C)c1cc(/C=C/C(=O)NCC2CCN(Cc3ccccc3)CC2)cc(C(C)(C)C)c1O		75.6	0.86		1.31	16.6		11.7	48.4	21.7		28.1	29.1		
CC(C)(C)c1cc(/C=C/C(=O)NCCC2CCN(Cc3ccc(F)c(F)c3)CC2)cc(C(C)(C)C)c1O	420	65.7	0.79	1620	1.57	39.9	Not Active	9.3	64.5						
Cc1ccccc1CN1CCC(CCNC(=O)/C=C/c2cc(C(C)(C)C)c(O)c(C(C)(C)C)c2)CC1	870	65.3	0.75	2510	1.61	55.9		7.2	69.3	30.2	> 40				
